The subject of experiment [1] is tri-culture model (Normal Human Epidermal Melanocytes, Normal Human Epidermal Keratinocytes, and Normal Human Dermal Fibroblast). Nature of the experiment: Melanin synthesis inhibition in tri-culture model. The class given is cell-based. Conditions: 100 μM, tri-culture model (K/M/F), once a day for 10 days; FIG. 5. As to the method:
(§1) Tri-culture models, co-culture models, and single cell culture models were treated with a composition containing acetyl trifluoromethylphenyl valylglycine to assess the effects on different skin cells. Specifically, the three cultures for each of the tri-culture models (Normal Human Epidermal Melanocytes, Normal Human Epidermal Keratinocytes, and Normal Human Dermal Fibroblast), co-culture models (Normal Human Epidermal Melanocytes and Normal Human Epidermal Keratinocytes), and single cell culture models (Normal Human Epidermal Melanocytes) were grown for four days. The cultures were then treated once a day for 10 days with a composition containing 10% DMSO, water, and lipoic acid (Composition G) in an amount to deposit […] to the cell culture models, a composition containing 10% DMSO, water, and acetyl trifluoromethylphenyl valylglycine (Composition H) in an amount to deposit […] to the cell culture models, or a composition containing 10% DMSO, water, and acetyl trifluoromethylphenyl valylglycine (Composition I) in an amount to deposit […] to the cell culture models. The media for the cultures was changed each day over the ten-day period.
(§2) After the 10 days, the cells of the culture were lysed and the melanin content was measured using a procedure and equipment similar to that described in Example 2. […]

Experiment [2] has as its system single cell culture models (Normal Human Epidermal Melanocytes). Nature of the experiment: Melanin synthesis inhibition in single cell culture model. The class given is cell-based. The note with it: FIG. 5. As for the experimental part: as §1, §2
The test system of experiment [3] is p38 MAPK. As to the kind of experiment: qRT-PCR gene expression of p38 in NHEM after 10 days of treatment. The class given is cell-based, human. The note with it: FIG. 3B. As to the method:
(§3) The efficacy of acetyl trifluoromethylphenyl valylglycine to modulate key gene markers in the inflammatory pathway as it relates to post inflammatory hyperpigmentation conditions was evaluated. Specifically, four well plates were seeded with a single cell culture of normal human epidermal melanocyte (NHEM), and grown in a culture medium (namely, culture medium no. M254500, obtained from ThermoFisher™) and supplemented with Gibco™ human melanocyte growth supplement (namely, Human Melanocyte Growth Supplement-2 no. S0165, obtained from ThermoFisher™) at a density of 10,000 cells/cm^2 for 3 to 4 days.
(§4) The culture medium was then replaced by culture mediums containing different treatments. Specifically, the cell cultures were treated with 10 μL of one of Compositions C-E once a day for ten days (except weekends). After 10 days, the cells were trypsinized and centrifuged at 180×gravity for 7 minutes followed by RNA isolation using a QIAshredder cell lysate homogenizer no. […] The RNA was then quantified using the NanoDrop Spectrophotometer.
(§5) After RNA isolation was completed, samples of 1 μg of RNA from each cell culture was used for cDNA reactions for reverse transcription. […] The ΔΔCt values were then determined for each biological replicate by normalizing to the appropriate untreated control average ΔCt value. The ΔΔCt values were then used to calculate relative quantification (RQ) values.
(In general: Real-time PCR tracks product formation cycle by cycle.)

Experiment [4] has as its system COX-2. Nature of the experiment: qRT-PCR gene expression of COX-2 in NHEM after 10 days of treatment. The class given is cell-based, human. Conditions: FIG. 3A. As to the method:
as §3, §4, §5

Experiment [5] relates to co-culture models (Normal Human Epidermal Melanocytes and Normal Human Epidermal Keratinocytes). As to the kind of experiment: Melanin synthesis inhibition in co-culture model. The class given is cell-based. Conditions: co-culture on melanocytes and keratinocytes, once a day for 10 days; FIG. 5. As to the method: as §1, §2
The test system of experiment [6] is human primary melanocytes. As to the kind of experiment: Melanin content of human primary melanocyte cultures treated for ten days, with or without prostaglandin E2. The class given is cell-based. The note with it: FIGS. 1 and 2. As for the experimental part:
Six cultures of human primary melanocytes were grown for four days. Thereafter, the cultures were treated with 10 μL of one of Compositions A-E each day for ten days. Composition A contained 0.005 wt. % of acetyl trifluoromethylphenyl valylglycine, 2 wt. % ethanol, and the remainder being water. Composition B contained 0.05 wt. % of acetyl trifluoromethylphenyl valylglycine, 2 wt. % ethanol, and the remainder being water. Composition C contained 30 nM of prostaglandin E2, 2 wt. % ethanol, and the remainder being water. Composition D contained 0.005 wt. % of acetyl trifluoromethylphenyl valylglycine, 30 nM of prostaglandin E2, 2 wt. % ethanol, and the remainder being water. Composition E contained 0.05 wt. % of acetyl trifluoromethylphenyl valylglycine, 30 nM of prostaglandin E2, 2 wt. % ethanol, and the remainder being water. All weight percentages for Compositions A-E were based on the total weight of the respective composition. […]
After the 10 days, the cells of the culture were lysed and the melanin content was measured. Specifically, the cells were stained with Fontana Masion Staining and measured with a plate reader. A BCA assay was performed to quantify the protein concentration. […] To eliminate the melanin content caused by increased NHEM cell number in the system, the final melanin level was calculated by dividing the protein content in each culture. […]

Where [7] appears, read: with 30 nM prostaglandin E2, NHEM.
Where [8] appears, read: prostaglandin E2 alone (30 nM), NHEM.

For the compound `CC(=O)N(c1cccc(C(F)(F)F)c1)C(C(=O)NCC(=O)O)C(C)C` (stereo not shown) [acetyl trifluoromethylphenyl valylglycine], in experiment [1], the L-Tyrosine-induced melanin synthesis entry was “inhibited L-Tyrosine-induced melanin synthesis”. Besides, the “inhibitory effect on melanin synthesis relative to tri-culture” value in experiment [2] (melanocytes cultures compared with tri-culture) was “less than the observed in the tri-culture”. Also, the melanin synthesis result in experiment [2] (melanocytes cultures, once a day for 10 days) is reported as “an inhibitory effect was observed”; in experiment [5], “did not appear to inhibit melanin synthesis”. For the same compound, the “level of P38 MAPK induced by prostaglandin E2” value in experiment [3] (setting [7]) is “significantly attenuated”. Also, the “level of COX-2 induced by prostaglandin E2” value in experiment [4] (setting [7]) was “significantly attenuated”. Besides, the “melanin synthesis after induction by prostaglandin E2” value in experiment [6] (with 30 nM prostaglandin E2, once a day for ten days, melanin normalised to protein content) was “reduces melanin synthesis”.
On to `CCCCC[C@H](O)/C=C/[C@H]1[C@H](O)CC(=O)[C@@H]1C/C=C\CCCC(=O)O` [prostaglandin E2, reference compound], for which, in experiment [3] (setting [8]), the “p38 MAPK expression” value is “triggered the cascade”. Besides, the COX-2 expression entry in experiment [4] (setting [8]) is reported as “triggered the cascade”. Further, the melanin production entry in experiment [6] (prostaglandin E2 alone (30 nM), once a day for ten days) is “stimulates melanin production”.

These data come from patent US12036300B2, “Methods and compositions for improving skin” (L'OREAL, priority 2021, dated 2024).
